# Patent publication US6740680B1, “Pharmaceutical compositions to tetrac and methods of use thereof” (Becton Pharma, Inc., priority 1999, dated 2004)
# Read-outs that look alike come from different tables or passages of the source.
# Test system: Cynomologus monkeys
# Procedure: Preparation of Tetrac for injection. Tetrac from Rhône-Poulenc and Henning Laboratory were compared. Tetrac powder was dissolved in sterile 0.1 N NaOH at 2 mg/ml. This solution was made before the beginning of each treatment period and stored at 4° C. in polypropylene tubes, protected from light. Each solution for injection was prepared daily after dilution in the vehicle (0.9% NaCl) containing 5% monkey serum (v/v), and was stored at room temperature and protected from light, according to the storage conditions of the test substance.
# Animals. One male and one female purpose bred Cynomologus monkeys Macaca fascicularis were supplied by Centre de Recherches Primatologiques, Port Louis, Mauritius. […] The animals were individually housed in stainless steel cages and a metallic tray was placed under each cage in order to collect urine. The animals were fed daily with approximately 200 grams each of U.A.R. 107 C pelleted diet (batch Nos. 61106, 61207 and 70317, U.A.R., Villemoisson-sur-Orge, France), distributed about 2 hours after treatment with Tetrac. No contaminants were known to have been present in the diet, drinking water or bedding material at levels which may be expected to have interfered with or prejudiced the outcome of the study.
# Weeks 1 to 3 and weeks 7 to 9: the animals received the test substance TETRAC provided either by Rhone-Poulenc or by Henning Laboratories over a three-week period.
# Weeks 4 to 6 and weeks 10 to 12: a washout period of three weeks was observed.
# Administration of Tetrac. Tetrac was administered via intramuscular injection into the thigh muscle once a day, at approximately the same time each day, several days a week over a three week period. The quantity of tetrac administered to each animal was adjusted according to the most recently recorded body weight. A constant dosage-volume of 0.5 ml/kg was used.
# Morbidity and mortality. The animals were checked at least twice a day, for mortality and signs of morbidity.
# Body weight. Body weight was recorded for each animal once before the beginning of the treatment period, on the first day of the treatment period, and at least once a week until the end of the study.
# Food consumption. Food consumption was estimated for each animal by calculating the difference between the quantity given and that remaining the next morning. This was estimated daily during the week before treatment and throughout the study. Food consumption was expressed as a percentage of the quantity given. Whenever fasting was required, the food was removed at the end of the day and the estimation of consumption was made at that time, food being made available for approximately five hours on that day.
# [1] = Female, treatment period (3 weeks, 75 μg/kg/day i.m.)
# [2] = Female, washout period (3 weeks)
# [3] = Male, treatment period (3 weeks, 75 μg/kg/day i.m.)
Structure (SMILES),"Body weight gain (%) (Female, treatment period)","Food consumption 75%: days of observation/number of days in period (Female, treatment period)","Food consumption 100%: days of observation/number of days in period (Female, treatment period)","Food consumption (in words) (Female, treatment period)",Body weight gain [1],"Body weight gain (%) (Female, washout period)","Food consumption 75%: days of observation/number of days in period (Female, washout period)","Food consumption 100%: days of observation/number of days in period (Female, washout period)",Body weight gain [2],"Body weight gain (%) (Male, treatment period)","Food consumption 100%: days of observation/number of days in period (Male, treatment period)",Body weight gain [3],"Food consumption 100%: days of observation/number of days in period (Male, washout period)","Body weight gain (Male, washout period (3 weeks))","Food consumption 75%: days of observation/number of days in period (Male, treatment period)","Body weight gain (%) (Male, washout period)"
"O=C(O)Cc1cc(I)c(Oc2cc(I)c(O)c(I)c2)c(I)c1 [Tetrac from Henning Laboratory, 3,3′,5,5′-tetraiodothyroacetic acid]",g (+9%),75%: 13/21,100%: 8/21,slightly lower food consumption,+300 g,g (+3%),75%: 3/21,100%: 18/21,+100 g,g (+3%),100%: 21/21,+200 g,100%: 21/21,0 g,,
"O=C(O)Cc1cc(I)c(Oc2cc(I)c(O)c(I)c2)c(I)c1 [Tetrac from Rhône-Poulenc, 3,3′,5,5′-tetraiodothyroacetic acid]",g (+8%),75%: 7/21,100%: 14/21,,+300 g,,75%: 5/21,100%: 16/21,0 g,g (+2%),100%: 20/21,+100 g,100%: 21/21,+100 g,75%: 1/21,g (+2%)
